{
  "source": "ChEMBL document CHEMBL1130355",
  "about": "“Trypanocidal activity and redox potential of heterocyclic- and 2-hydroxy-naphthoquinones” (1997)",
  "format_in_all_cases": "functional",
  "key": {"Mus musculus [1]": {"organism": "Mus musculus", "assay": "Tested for its ability to eliminate the infective trypomastigote form of Trypanosoma cruzi, Y strain present in blood of infected mice at the dose of 0.21 mM"}, "Mus musculus [2]": {"organism": "Mus musculus", "assay": "Tested for its ability to eliminate the infective trypomastigote form of Trypanosoma cruzi, Y strain present in blood of infected mice at the dose of 0.22 mM"}, "Mus musculus [3]": {"organism": "Mus musculus", "assay": "Tested for its ability to eliminate the infective trypomastigote form of Trypanosoma cruzi, Y strain present in blood of infected mice at the dose of 0.20 mM"}, "Mus musculus [4]": {"organism": "Mus musculus", "assay": "Tested for its ability to eliminate the infective trypomastigote form of Trypanosoma cruzi, Y strain present in blood of infected mice at the dose of 0.18 mM"}, "Mus musculus [5]": {"organism": "Mus musculus", "assay": "Tested for its ability to eliminate the infective trypomastigote form of Trypanosoma cruzi, Y strain present in blood of infected mice at the dose of 0.50 mM"}, "Mus musculus [6]": {"organism": "Mus musculus", "assay": "Tested for its ability to eliminate the infective trypomastigote form of Trypanosoma cruzi, Y strain present in blood of infected mice at the dose of 0.19 mM"}, "Mus musculus [7]": {"organism": "Mus musculus", "assay": "Tested for its ability to eliminate the infective trypomastigote form of Trypanosoma cruzi, Y strain present in blood of infected mice at the dose of 0.24 mM"}, "Mus musculus [8]": {"organism": "Mus musculus", "assay": "Tested for its ability to eliminate the infective trypomastigote form of Trypanosoma cruzi, Y strain present in blood of infected mice at the dose of 0.25 mM"}, "Mus musculus [9]": {"organism": "Mus musculus", "assay": "Tested for its ability to eliminate the infective trypomastigote form of Trypanosoma cruzi, Y strain present in blood of infected mice at the dose of 0.12 mM"}, "Mus musculus [10]": {"organism": "Mus musculus", "assay": "Tested for its ability to eliminate the infective trypomastigote form of Trypanosoma cruzi, Y strain present in blood of infected mice at the dose of 0.29 mM"}, "Mus musculus [11]": {"organism": "Mus musculus", "assay": "Tested for its ability to eliminate the infective trypomastigote form of Trypanosoma cruzi, Y strain present in blood of infected mice at the dose of 0.23 mM"}},
  "data": [
    {"smiles": "CC(C)c1cc2c(o1)C(=O)c1ccccc1C2=O", "values": [
      {"measurement": "Lysis", "setting": "Mus musculus [1]", "result": 88, "unit": "%"}
    ]},
    {"smiles": "CC/C=C/C1=C(O)C(=O)c2ccccc2C1=O", "values": [
      {"measurement": "Lysis", "setting": "Mus musculus [2]", "result": 68, "unit": "%"}
    ]},
    {"smiles": "COc1cccc2c1C(=O)c1ccsc1C2=O", "values": [
      {"measurement": "Lysis", "setting": "Mus musculus [3]", "result": 0, "unit": "%"}
    ]},
    {"smiles": "COc1ccc2c(c1OC)C(=O)c1sccc1C2=O", "values": [
      {"measurement": "Lysis", "setting": "Mus musculus [4]", "result": 19, "unit": "%"}
    ]},
    {"smiles": "O=C1C(=O)c2ccoc2-c2ccccc21", "values": [
      {"measurement": "Lysis", "setting": "Mus musculus [5]", "result": 100, "unit": "%"}
    ]},
    {"smiles": "COc1cccc2c1C(=O)c1sccc1C2=O", "values": [
      {"measurement": "Lysis", "setting": "Mus musculus [3]", "result": 26, "unit": "%"}
    ]},
    {"smiles": "COc1cccc2c1C(=O)c1ccoc1C2=O", "values": [
      {"measurement": "Lysis", "setting": "Mus musculus [2]", "result": 52, "unit": "%"}
    ]},
    {"smiles": "O=C1c2ccccc2C(=O)c2sc([N+](=O)[O-])cc21", "values": [
      {"measurement": "Lysis", "setting": "Mus musculus [6]", "result": 54, "unit": "%"}
    ]},
    {"smiles": "Cc1cc2c(o1)C(=O)c1ccccc1C2=O", "values": [
      {"measurement": "Lysis", "setting": "Mus musculus [7]", "result": 18, "unit": "%"}
    ]},
    {"smiles": "CCc1cc2c(o1)C(=O)c1ccccc1C2=O", "values": [
      {"measurement": "Lysis", "setting": "Mus musculus [2]", "result": 24, "unit": "%"}
    ]},
    {"smiles": "O=C1c2ccccc2C(=O)c2occc21", "values": [
      {"measurement": "Lysis", "setting": "Mus musculus [8]", "result": 33, "unit": "%"}
    ]},
    {"smiles": "CC(C)/C=C/C1=C(O)C(=O)c2ccccc2C1=O", "values": [
      {"measurement": "Lysis", "setting": "Mus musculus [1]", "result": 81, "unit": "%"}
    ]},
    {"smiles": "CCc1cc2c(o1)-c1ccccc1C(=O)C2=O", "values": [
      {"measurement": "Lysis", "setting": "Mus musculus [2]", "result": 94, "unit": "%"}
    ]},
    {"smiles": "COc1ccc2c(c1)C(=O)c1ccsc1C2=O", "values": [
      {"measurement": "Lysis", "setting": "Mus musculus [3]", "result": 9, "unit": "%"}
    ]},
    {"smiles": "COc1cc(OC)c2c(c1)C(=O)c1sccc1C2=O", "values": [
      {"measurement": "Lysis", "setting": "Mus musculus [4]", "result": 19, "unit": "%"}
    ]},
    {"smiles": "CC(C)c1cc2c(o1)-c1ccccc1C(=O)C2=O", "values": [
      {"measurement": "Lysis", "setting": "Mus musculus [1]", "result": 94, "unit": "%"}
    ]},
    {"smiles": "CC1(C)CCC2=C(O1)C(=O)c1ccccc1C2=O", "note": "[ALPHA-LAPACHONE]", "values": [
      {"measurement": "Lysis", "setting": "Mus musculus [1]", "result": 48, "unit": "%"}
    ]},
    {"smiles": "CN(C)c1ccc(C(=C2C=CC(=[N+](C)C)C=C2)c2ccc(N(C)C)cc2)cc1.[Cl-]", "note": "[GENTIAN VIOLET]", "values": [
      {"measurement": "Lysis", "setting": "Mus musculus [9]", "result": 100, "unit": "%"}
    ]},
    {"smiles": "CC(C)=CCC1=C(O)C(=O)c2ccccc2C1=O", "note": "[LAPACHOL]", "values": [
      {"measurement": "Lysis", "setting": "Mus musculus [1]", "result": 65, "unit": "%"}
    ]},
    {"smiles": "CC1(C)CCC2=C(O1)c1ccccc1C(=O)C2=O", "note": "[LAPACHONE]", "values": [
      {"measurement": "Lysis", "setting": "Mus musculus [1]", "result": 76, "unit": "%"}
    ]},
    {"smiles": "O=C1C=C(O)C(=O)c2ccccc21", "note": "[LAWSONE]", "values": [
      {"measurement": "Lysis", "setting": "Mus musculus [10]", "result": 76, "unit": "%"}
    ]},
    {"smiles": "O=C1c2ccccc2C(=O)c2sccc21", "note": "[THIOPHENONAPHTHOQUINONE]", "values": [
      {"measurement": "Lysis", "setting": "Mus musculus [11]", "result": 13, "unit": "%"}
    ]}
  ]
}
